# PubChem BioAssay (NCI)
#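 A five-concentration, 48-hour dose response in 96-well plates underlies each endpoint, interpolated linearly between surrounding concentrations. Here, GI50 denotes the concentration required for 50% inhibition of growth. At the TGI there is no net growth.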
# How the values were obtained:
# Assay in all cases: NCI tumour cell line growth inhibition, 48 h
# [1] = system: BT-549 breast
# [2] = system: CCRF-CEM leukemia
# [3] = system: SK-MEL-2 melanoma
# [4] = system: EKVX NSCLC
# [5] = system: SK-OV-3 ovarian
# [6] = system: NCI-H522 lung
# [7] = system: SF-268 CNS
# [8] = system: OVCAR-4 ovarian
# [9] = system: LOX IMVI melanoma
# [10] = system: SF-295 CNS
# [11] = system: KM12 colon
# [12] = system: MDA-MB-231 breast
# [13] = system: HCT-116 colon
# [14] = system: A549 NSCLC
# [15] = system: K-562 leukemia
# [16] = system: A498 renal
# [17] = system: OVCAR-8 ovarian
# [18] = system: U251 CNS
# [19] = system: OVCAR-5 ovarian
# [20] = system: HL-60(TB) leukemia
# [21] = system: NCI/ADR-RES ovarian
# [22] = system: SNB-19 CNS
# [23] = system: MALME-3M melanoma
# [24] = system: HCT-15 colon
# [25] = system: RPMI-8226 leukemia
# [26] = system: SK-MEL-28 melanoma
# [27] = system: M14 melanoma
# [28] = system: HOP-62 NSCLC
# [29] = system: NCI-H460 lung
# [30] = system: NCI-H226 lung
# [31] = system: OVCAR-3 ovarian
# [32] = system: COLO 205 colon
# [33] = system: UACC-257 melanoma
# [34] = system: HT29 colon
# [35] = system: SK-MEL-5 melanoma
# [36] = system: CAKI-1 renal
# [37] = system: SF-539 CNS
# [38] = system: ACHN renal
# [39] = system: HOP-92 NSCLC
# [40] = system: MCF7 breast
# [41] = system: UACC-62 melanoma
# [42] = system: T-47D breast
# [43] = system: 786-0 renal
# [44] = system: PC-3 prostate
# [45] = system: SN12C renal
# [46] = system: RXF 393 renal
# [47] = system: MDA-MB-435
# [48] = system: UO-31 renal
# [49] = system: HCC-2998 colon
# [50] = system: SNB-75 CNS
# [51] = system: SW-620 colon
# [52] = system: HS 578T breast
# [53] = system: SR leukemia
# [54] = system: DU-145 prostate
# [55] = system: TK-10 renal
# [56] = system: IGROV1 ovarian
# [57] = system: MOLT-4 leukemia
compound,measurement,setting,value
O=C1Nc2cc(Cl)ccc2/C1=C\c1ccc(OCc2ccc(Br)cc2F)cc1,GI50,[1],2.1 µM
same,TGI,[1],4.69 µM
same,GI50,[2],3.74 µM
same,TGI,[2],22 µM
same,GI50,[3],2.97 µM
same,TGI,[3],9.98 µM
same,GI50,[4],3.85 µM
same,TGI,[4],18 µM
same,GI50,[5],1.69 µM
same,TGI,[5],3.33 µM
same,GI50,[6],1.8 µM
same,TGI,[6],4.33 µM
same,GI50,[7],2.29 µM
same,TGI,[7],6.34 µM
same,GI50,[8],1.84 µM
same,TGI,[8],3.71 µM
same,GI50,[9],1.49 µM
same,TGI,[9],2.88 µM
same,GI50,[10],1.89 µM
same,TGI,[10],3.5 µM
same,GI50,[11],3.12 µM
same,TGI,[11],73.7 µM
same,GI50,[12],2.2 µM
same,TGI,[12],5.34 µM
same,GI50,[13],1.38 µM
same,TGI,[13],2.87 µM
same,GI50,[14],2.04 µM
same,TGI,[14],4.62 µM
same,GI50,[15],3.3 µM
same,TGI,[15],> 100 µM
same,GI50,[16],2.5 µM
same,TGI,[16],5.95 µM
same,GI50,[17],2.46 µM
same,TGI,[17],6.89 µM
same,GI50,[18],1.69 µM
same,TGI,[18],3.21 µM
same,GI50,[19],4.16 µM
same,TGI,[19],> 100 µM
same,GI50,[20],53 µM
same,TGI,[20],> 100 µM
same,GI50,[21],2.31 µM
same,TGI,[21],6 µM
same,GI50,[22],1.92 µM
same,TGI,[22],4.29 µM
same,GI50,[23],1.97 µM
same,TGI,[23],4.27 µM
same,GI50,[24],3.55 µM
same,TGI,[24],50.1 µM
same,GI50,[25],3.71 µM
same,TGI,[25],> 100 µM
same,GI50,[26],2.84 µM
same,TGI,[26],8.37 µM
same,GI50,[27],2.27 µM
same,TGI,[27],6.69 µM
same,GI50,[28],1.79 µM
same,TGI,[28],3.76 µM
same,GI50,[29],0.459 µM
same,TGI,[29],1.7 µM
same,GI50,[30],2.19 µM
same,TGI,[30],6.89 µM
same,GI50,[31],2.08 µM
same,TGI,[31],4.72 µM
same,GI50,[32],2.58 µM
same,TGI,[32],12.4 µM
same,GI50,[33],3.3 µM
same,TGI,[33],18.4 µM
same,GI50,[34],2.37 µM
same,TGI,[34],6.4 µM
same,GI50,[35],5.53 µM
same,TGI,[35],82.4 µM
same,GI50,[36],1.67 µM
same,TGI,[36],3.35 µM
same,GI50,[37],1.66 µM
same,TGI,[37],3.18 µM
same,GI50,[38],1.83 µM
same,TGI,[38],4.04 µM
same,GI50,[39],1.22 µM
same,TGI,[39],3.85 µM
same,GI50,[40],1.25 µM
same,TGI,[40],15.2 µM
same,GI50,[41],1.68 µM
same,TGI,[41],3.35 µM
same,GI50,[42],2.3 µM
same,TGI,[42],6.6 µM
same,GI50,[43],1.98 µM
same,TGI,[43],3.66 µM
same,GI50,[44],1.7 µM
same,TGI,[44],3.49 µM
same,GI50,[45],1.86 µM
same,TGI,[45],4.09 µM
same,GI50,[46],1.65 µM
same,TGI,[46],3.2 µM
same,GI50,[47],2.26 µM
same,TGI,[47],5.38 µM
same,GI50,[48],1.49 µM
same,TGI,[48],4.75 µM
same,GI50,[49],4.14 µM
same,TGI,[49],37.4 µM
same,GI50,[50],1.81 µM
same,TGI,[50],3.39 µM
same,GI50,[51],1.9 µM
same,TGI,[51],4.56 µM
same,GI50,[52],1.91 µM
same,TGI,[52],6.2 µM
same,GI50,[53],2.59 µM
same,TGI,[53],8.18 µM
same,GI50,[54],2.93 µM
same,TGI,[54],> 100 µM
same,GI50,[55],2.51 µM
same,TGI,[55],4.59 µM
same,GI50,[56],2.07 µM
same,TGI,[56],5.13 µM
same,GI50,[57],3.57 µM
same,TGI,[57],26.1 µM
